Laboratory results taken from ChEMBL document CHEMBL1201862, “PubChem BioAssay data set” (2004).
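These data come from cells grown in 96-well plates and exposed to compound for 48 hours at five concentrations. At the GI50, growth is halved.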 Calls of active or inactive are those of the source. Cut-off read from the data, not from the text of the source: active = GI50 up to about 1.1 µM and inactive = higher.

How the values were obtained:
Assay in all cases: NCI-60 cell line screen, 48 h
RXF 393 = system: RXF 393
MDA-N = system: MDA-N
UO-31 = system: UO-31
HL-60 = system: HL-60
NCI-H522 = system: NCI-H522
SNB-19 = system: SNB-19
NCI/ADR-RES = system: NCI/ADR-RES
NCI-H226 = system: NCI-H226
CAKI-1 = system: CAKI-1
M14 = system: M14
EKVX = system: EKVX
CCRF-CEM = system: CCRF-CEM
HCC 2998 = system: HCC 2998
786-0 = system: 786-0
MDA-MB-231 = system: MDA-MB-231
SF-268 = system: SF-268
ACHN = system: ACHN
SK-MEL-2 = system: SK-MEL-2
A549 = system: A549
SF-539 = system: SF-539
OVCAR-5 = system: OVCAR-5
A498 = system: A498
SK-OV-3 = system: SK-OV-3
SNB-75 = system: SNB-75
IGROV-1 = system: IGROV-1
HCT-15 = system: HCT-15
UACC-62 = system: UACC-62
SW-620 = system: SW-620
MOLT-4 = system: MOLT-4
RPMI-8226 = system: RPMI-8226
SF-295 = system: SF-295
HT-29 = system: HT-29
UACC-257 = system: UACC-257
OVCAR-3 = system: OVCAR-3
K562 = system: K562
HOP-62 = system: HOP-62
OVCAR-8 = system: OVCAR-8
SK-MEL-28 = system: SK-MEL-28
SK-MEL-5 = system: SK-MEL-5
DU-145 = system: DU-145
TK-10 = system: TK-10
MDA-MB-435 = system: MDA-MB-435
NCI-H23 = system: NCI-H23
HOP-92 = system: HOP-92
OVCAR-4 = system: OVCAR-4
SR = system: SR
COLO 205 = system: COLO 205
SN12C = system: SN12C
HCT-116 = system: HCT-116
U-251 = system: U-251
T47D = system: T47D
PC-3 = system: PC-3
LOX IMVI = system: LOX IMVI
BT-549 = system: BT-549
Malme-3M = system: Malme-3M
NCI-H460 = system: NCI-H460
KM12 = system: KM12
Hs-578T = system: Hs-578T
MCF7 = system: MCF7

In the case of `COc1ccc2[nH]c3nnc(N)c-3nc2c1`, the GI50 (RXF 393) is reported as 2.49 µM (inactive), the GI50 (MDA-N) is reported as 12 µM (inactive) and the GI50 (UO-31) is reported as 9.73 µM (inactive). The GI50 (HL-60) was 2.13 µM (inactive), the GI50 (NCI-H522) was 5.83 µM (inactive) and the GI50 (SNB-19) was 16.5 µM (inactive). The GI50 (NCI/ADR-RES) was 7.01 µM (inactive), the GI50 (NCI-H226) was 3.85 µM (inactive) and the GI50 (CAKI-1) was 5.66 µM (inactive). The GI50 (M14) was 12.3 µM (inactive), the GI50 (EKVX) was 4.26 µM (inactive) and the GI50 (CCRF-CEM) was 9.31 µM (inactive). For the same molecule, the GI50 (HCC 2998) was 14.1 µM (inactive), the GI50 (786-0) was 8.3 µM (inactive) and the GI50 (MDA-MB-231) was 18.9 µM (inactive). For the same molecule, the GI50 (SF-268) was 6.21 µM (inactive), the GI50 (ACHN) was 3.33 µM (inactive) and the GI50 (SK-MEL-2) was 5.28 µM (inactive). For the same molecule, the GI50 (A549) was 4.14 µM (inactive), the GI50 (SF-539) was 3.74 µM (inactive) and the GI50 (OVCAR-5) was 7.8 µM (inactive). The GI50 (A498) was 9.79 µM (inactive), the GI50 (SK-OV-3) was 20.4 µM (inactive) and the GI50 (SNB-75) was 6.79 µM (inactive). For the same molecule, the GI50 (IGROV-1) was 2.59 µM (inactive), the GI50 (HCT-15) was 7.94 µM and the GI50 (UACC-62) was 7.01 µM (inactive). The GI50 (SW-620) was 9.4 µM (inactive), the GI50 (MOLT-4) was 5.73 µM (inactive) and the GI50 (RPMI-8226) was 3.87 µM (inactive). For the same molecule, the GI50 (SF-295) was 7.66 µM (inactive), the GI50 (HT-29) was 5.58 µM (inactive) and the GI50 (UACC-257) was 17.1 µM (inactive). The GI50 (OVCAR-3) was 3.61 µM (inactive), the GI50 (K562) was 62.4 µM (inactive) and the GI50 (HOP-62) was 6.14 µM (inactive). For the same molecule, the GI50 (OVCAR-8) was 5.62 µM (inactive), the GI50 (SK-MEL-28) was 11.2 µM (inactive) and the GI50 (SK-MEL-5) was 8.09 µM (inactive). For the same molecule, the GI50 (DU-145) was 7.55 µM (inactive), the GI50 (TK-10) was 11.3 µM (inactive) and the GI50 (MDA-MB-435) was 10.2 µM (inactive). The GI50 (NCI-H23) was 4.17 µM (inactive), the GI50 (HOP-92) was 10.4 µM (inactive) and the GI50 (OVCAR-4) was 20 µM (inactive). For the same molecule, the GI50 (SR) was 4.1 µM (inactive), the GI50 (COLO 205) was 3.62 µM (inactive) and the GI50 (SN12C) was 18.4 µM (inactive). The GI50 (HCT-116) was 4.04 µM (inactive), the GI50 (U-251) was 10.6 µM (inactive) and the GI50 (T47D) was 7.5 µM (inactive). For the same molecule, the GI50 (PC-3) was 8.43 µM (inactive), the GI50 (LOX IMVI) was 4.11 µM (inactive) and the GI50 (BT-549) was 13.6 µM (inactive). The GI50 (Malme-3M) was 21.8 µM (inactive), the GI50 (NCI-H460) was 7.46 µM (inactive) and the GI50 (KM12) was 5.68 µM (inactive). For the same molecule, the GI50 (Hs-578T) was 3.81 µM (inactive) and the GI50 (MCF7) was 3.99 µM (inactive).

With `Nc1nc(Cl)cc(NCC2(CO)CC(CCc3ccccc3)C2)n1` (configuration not stated) the GI50 (RXF 393) was 24.1 µM (inactive), the GI50 (MDA-N) was > 100 µM (inactive) and the GI50 (UO-31) was > 75.2 µM (inactive). For the same molecule, the GI50 (HL-60) was 3.44 µM (inactive), the GI50 (NCI-H522) was 17.6 µM (inactive) and the GI50 (SNB-19) was > 100 µM (inactive). The GI50 (NCI/ADR-RES) was 4.14 µM (inactive), the GI50 (NCI-H226) was > 100 µM (inactive) and the GI50 (CAKI-1) was > 100 µM (inactive). The GI50 (M14) was > 100 µM (inactive), the GI50 (EKVX) was 2.83 µM (inactive) and the GI50 (CCRF-CEM) was > 58.9 µM (inactive). The GI50 (HCC 2998) was > 100 µM (inactive), the GI50 (786-0) was > 71.8 µM (inactive) and the GI50 (MDA-MB-231) was > 81.1 µM (inactive). The GI50 (SF-268) was > 55.8 µM (inactive), the GI50 (ACHN) was > 29 µM (inactive) and the GI50 (SK-MEL-2) was 97.9 µM (inactive). The GI50 (A549) was 9.16 µM (inactive), the GI50 (SF-539) was > 100 µM (inactive) and the GI50 (OVCAR-5) was > 100 µM (inactive). For the same molecule, the GI50 (A498) was > 100 µM (inactive), the GI50 (SK-OV-3) was > 100 µM (inactive) and the GI50 (SNB-75) was 20.3 µM (inactive). For the same molecule, the GI50 (IGROV-1) was > 100 µM (inactive), the GI50 (HCT-15) was greater than 59.2 µM and the GI50 (UACC-62) was > 58.6 µM (inactive). For the same molecule, the GI50 (SW-620) was > 100 µM (inactive), the GI50 (MOLT-4) was 8.38 µM (inactive) and the GI50 (RPMI-8226) was 2.9 µM (inactive). The GI50 (SF-295) was 5.9 µM (inactive), the GI50 (HT-29) was > 46 µM (inactive) and the GI50 (UACC-257) was 0.461 µM (active). For the same molecule, the GI50 (OVCAR-3) was 5.07 µM (inactive), the GI50 (K562) was 1.42 µM (inactive) and the GI50 (HOP-62) was > 37.6 µM (inactive). The GI50 (OVCAR-8) was 21.8 µM (inactive), the GI50 (SK-MEL-28) was > 100 µM (inactive) and the GI50 (SK-MEL-5) was 0.506 µM (active). For the same molecule, the GI50 (DU-145) was > 100 µM (inactive), the GI50 (TK-10) was > 70.5 µM (inactive) and the GI50 (MDA-MB-435) was > 100 µM (inactive). For the same molecule, the GI50 (NCI-H23) was 10.5 µM (inactive), the GI50 (HOP-92) was > 28.8 µM (inactive) and the GI50 (OVCAR-4) was > 29.3 µM (inactive). The GI50 (SR) was 1.31 µM (inactive), the GI50 (COLO 205) was > 71.9 µM (inactive) and the GI50 (SN12C) was > 100 µM (inactive). The GI50 (U-251) was > 100 µM (inactive), the GI50 (T47D) was 0.542 µM (active) and the GI50 (PC-3) was 73.8 µM (inactive). The GI50 (LOX IMVI) was 3.26 µM (inactive), the GI50 (BT-549) was > 32.8 µM (inactive) and the GI50 (Malme-3M) was > 100 µM (inactive). The GI50 (NCI-H460) was 22.3 µM (inactive), the GI50 (KM12) was 83.9 µM (inactive) and the GI50 (Hs-578T) was > 59.4 µM (inactive). The GI50 (MCF7) was 9.16 µM (inactive).
